# Where “and” joins values, the source holds several entries; their conditions need not be identical. Equal values may be shown once.
# What was measured:
# [1] = molecular target: BRISC BRCC36 R167A (Homo sapiens, UniProt P46736+Q15018+Q9NXR7, R167A); assay: BRISC mutant IQF assay: BRCC36 R167A; assay type: biochemical
# Experimental: (§1) IQF assays were performed in DUB reaction buffer containing 50 mM HEPES–NaOH pH 7.0, 100 mM NaCl, 0.1 mg ml^−1 BSA, 1 mM DTT and 0.03% v/v Brij-35. […] The final concentration of BRISC WT, all BRISC mutants, HsBRISCΔLoop, MmBRISC and DrBRISCΔNΔC was 1 nM. Other enzymes were tested at the following concentrations: 5 nM ARISC (FL), 10 nM CfBRISCΔNΔC, 250 nM AMSH* (ref. [43]), 500 nM USP2 and 1 μM trypsin (Sigma, 9002-07-7). For Michaelis–Menten experiments, 1 nM BRISC with 0–1 μM IQF K63-linked diubiquitin substrate was used. Michaelis–Menten analyses and Lineweaver–Burk plots were calculated using GraphPad Prism (version 9.0).
# (§2) To assess enzymatic activity, BRISC complexes were diluted to concentrations between 1 nM and 50 nM. […] Then, 20-μl enzyme reactions were carried out in 384-well black flat-bottom low-flange plates (Corning, 35373). DUB activity was measured using IQF K63-linked diubiquitin (LifeSensors, DU6303) at 50 nM. Cleaved diubiquitin was monitored by measuring fluorescence intensity (excitation, 544 nm; emission, 575 nm; dichroic mirror, 560 nm). Fluorescence intensity was measured every minute for 30 min at 30 °C. Fluorescence intensity units were plotted against time to generate a linear reaction progress curve, where the initial velocity (V0) corresponds to the gradient of the curve (typically achieved within 15 min). IC50 values were calculated using the GraphPad Prism (version 9.0) built-in dose–response equation for inhibitor concentration versus response (variable slope).
# [2] = molecular target: BRISC BRCC36 L169A (Homo sapiens, UniProt P46736+Q15018+Q9NXR7, L169A); assay: BRISC mutant IQF assay: BRCC36 L169A; assay type: biochemical
# Experimental: as §1, §2
# [3] = molecular target: BRISC Abraxas2 I133W (Homo sapiens, UniProt P46736+Q15018+Q9NXR7, I133W); assay: BRISC mutant IQF assay: Abraxas2 I133W; assay type: biochemical
# Experimental: as §1
# To assess enzymatic activity, BRISC complexes were diluted to concentrations between 1 nM and 50 nM. […] DUB activity was measured using IQF K63-linked diubiquitin (LifeSensors, DU6303) at 50 nM. Cleaved diubiquitin was monitored by measuring fluorescence intensity (excitation, 544 nm; emission, 575 nm; dichroic mirror, 560 nm). Fluorescence intensity was measured every minute for 30 min at 30 °C. Fluorescence intensity units were plotted against time to generate a linear reaction progress curve, where the initial velocity (V0) corresponds to the gradient of the curve (typically achieved within 15 min). IC50 values were calculated using the GraphPad Prism (version 9.0) built-in dose–response equation for inhibitor concentration versus response (variable slope).
# [4] = molecular target: HsBRISCΔLoop (Homo sapiens, UniProt P46736+Q15018+Q9NXR7, DEL184-208); assay: Mass photometry of HsBRISCΔLoop dimer formation; details: for Dimer fraction: HsBRISCΔLoop
# [5] = molecular target: T1, panel of 48 purified DUBs (Homo sapiens, UniProt O94966); assay: DUB selectivity profiling (DUBprofiler, ubiquitin–rhodamine(110)–glycine); assay type: biochemical; details: DUB USP19; screening concentration 5 μM; 5 µM
# T1 construct: purchased Ubiquigent (DUBprofiler service)
# T1 sequence (O94966 whole entry): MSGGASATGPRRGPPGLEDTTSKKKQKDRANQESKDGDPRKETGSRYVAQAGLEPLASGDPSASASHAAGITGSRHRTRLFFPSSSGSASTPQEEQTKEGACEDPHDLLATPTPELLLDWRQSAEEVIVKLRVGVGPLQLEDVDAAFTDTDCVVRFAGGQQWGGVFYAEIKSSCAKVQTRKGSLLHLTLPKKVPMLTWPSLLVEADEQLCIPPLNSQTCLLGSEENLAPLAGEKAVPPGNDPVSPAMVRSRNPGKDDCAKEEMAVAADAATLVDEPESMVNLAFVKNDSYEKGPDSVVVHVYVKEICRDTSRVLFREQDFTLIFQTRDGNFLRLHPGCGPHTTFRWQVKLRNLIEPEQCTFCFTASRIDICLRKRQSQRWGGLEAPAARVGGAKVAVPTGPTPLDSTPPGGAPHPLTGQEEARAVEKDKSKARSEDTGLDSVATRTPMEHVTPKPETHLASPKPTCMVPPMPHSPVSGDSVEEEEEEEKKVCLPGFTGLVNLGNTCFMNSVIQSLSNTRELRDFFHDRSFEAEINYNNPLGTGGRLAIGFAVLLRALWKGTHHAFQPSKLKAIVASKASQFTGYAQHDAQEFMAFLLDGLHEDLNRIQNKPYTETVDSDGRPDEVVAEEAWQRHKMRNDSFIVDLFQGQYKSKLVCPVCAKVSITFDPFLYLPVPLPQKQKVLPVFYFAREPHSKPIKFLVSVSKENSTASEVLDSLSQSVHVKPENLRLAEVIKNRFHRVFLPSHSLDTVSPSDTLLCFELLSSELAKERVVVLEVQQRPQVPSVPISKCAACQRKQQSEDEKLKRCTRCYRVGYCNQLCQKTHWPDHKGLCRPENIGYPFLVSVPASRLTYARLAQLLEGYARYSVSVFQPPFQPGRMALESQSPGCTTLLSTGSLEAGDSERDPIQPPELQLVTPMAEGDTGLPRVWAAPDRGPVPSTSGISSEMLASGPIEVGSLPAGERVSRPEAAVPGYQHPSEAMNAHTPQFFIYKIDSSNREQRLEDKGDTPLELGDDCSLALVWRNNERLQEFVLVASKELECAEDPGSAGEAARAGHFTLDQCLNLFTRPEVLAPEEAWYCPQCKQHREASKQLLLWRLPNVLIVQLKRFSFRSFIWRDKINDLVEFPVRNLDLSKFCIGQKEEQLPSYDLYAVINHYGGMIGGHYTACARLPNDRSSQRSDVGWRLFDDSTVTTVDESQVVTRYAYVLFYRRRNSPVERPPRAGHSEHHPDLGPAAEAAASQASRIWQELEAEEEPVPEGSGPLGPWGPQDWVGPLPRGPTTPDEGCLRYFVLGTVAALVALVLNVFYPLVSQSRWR
# Experimental: (§3) Biochemical selectivity profiling (DUBprofiler) was performed by Ubiquigent with a panel of 48 purified DUBs and ubiquitin–rhodamine(110)–glycine as a fluorescent substrate.
# [6] = molecular target: T2, panel of 48 purified DUBs (Homo sapiens, UniProt P09936); assay: as above; assay type: biochemical; details: DUB UCHL1; screening concentration 5 μM; 5 µM
# T2 construct: purchased Ubiquigent (DUBprofiler service)
# T2 sequence (P09936 whole entry): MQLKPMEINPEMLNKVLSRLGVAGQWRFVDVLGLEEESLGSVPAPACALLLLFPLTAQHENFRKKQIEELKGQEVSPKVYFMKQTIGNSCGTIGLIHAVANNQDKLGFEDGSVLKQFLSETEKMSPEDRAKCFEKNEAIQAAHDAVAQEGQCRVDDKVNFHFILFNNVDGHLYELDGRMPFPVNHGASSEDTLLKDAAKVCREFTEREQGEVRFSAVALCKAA
# Experimental: as §3
# [7] = molecular target: T3, panel of 48 purified DUBs (Homo sapiens, UniProt P54252); assay: as above; assay type: biochemical; details: DUB Ataxin3; screening concentration 5 μM; 5 µM
# T3 construct: purchased Ubiquigent (DUBprofiler service)
# Experimental: as §3
# [8] = molecular target: T4, panel of 48 purified DUBs (Homo sapiens, UniProt Q13107); assay: as above; assay type: biochemical; details: DUB USP4; screening concentration 5 μM
# T4 construct: purchased Ubiquigent (DUBprofiler service)
# Experimental: as §3
# [9] = molecular target: T5, panel of 48 purified DUBs (Homo sapiens, UniProt Q5T2D3); assay: as above; assay type: biochemical; details: DUB OTUD3; screening concentration 5 μM; 5 µM
# T5 construct: purchased Ubiquigent (DUBprofiler service)
# T5 sequence (Q5T2D3 whole entry): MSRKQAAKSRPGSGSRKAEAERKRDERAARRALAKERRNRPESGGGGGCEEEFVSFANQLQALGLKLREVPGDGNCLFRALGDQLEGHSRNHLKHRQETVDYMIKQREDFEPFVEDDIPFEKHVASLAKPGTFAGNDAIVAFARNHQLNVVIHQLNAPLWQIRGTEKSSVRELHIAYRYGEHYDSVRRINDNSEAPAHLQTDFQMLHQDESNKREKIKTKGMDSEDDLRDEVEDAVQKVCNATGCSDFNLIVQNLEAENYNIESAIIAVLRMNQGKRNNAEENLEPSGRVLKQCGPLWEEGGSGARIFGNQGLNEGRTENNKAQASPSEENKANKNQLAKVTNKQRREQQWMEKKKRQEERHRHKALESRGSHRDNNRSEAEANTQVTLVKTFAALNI
# Experimental: as §3
# [10] = molecular target: T6, panel of 48 purified DUBs (Homo sapiens, UniProt Q6GQQ9); assay: as above; assay type: biochemical; details: DUB Cezanne; screening concentration 5 μM; 5 µM
# T6 construct: purchased Ubiquigent (DUBprofiler service)
# T6 sequence (Q6GQQ9 whole entry): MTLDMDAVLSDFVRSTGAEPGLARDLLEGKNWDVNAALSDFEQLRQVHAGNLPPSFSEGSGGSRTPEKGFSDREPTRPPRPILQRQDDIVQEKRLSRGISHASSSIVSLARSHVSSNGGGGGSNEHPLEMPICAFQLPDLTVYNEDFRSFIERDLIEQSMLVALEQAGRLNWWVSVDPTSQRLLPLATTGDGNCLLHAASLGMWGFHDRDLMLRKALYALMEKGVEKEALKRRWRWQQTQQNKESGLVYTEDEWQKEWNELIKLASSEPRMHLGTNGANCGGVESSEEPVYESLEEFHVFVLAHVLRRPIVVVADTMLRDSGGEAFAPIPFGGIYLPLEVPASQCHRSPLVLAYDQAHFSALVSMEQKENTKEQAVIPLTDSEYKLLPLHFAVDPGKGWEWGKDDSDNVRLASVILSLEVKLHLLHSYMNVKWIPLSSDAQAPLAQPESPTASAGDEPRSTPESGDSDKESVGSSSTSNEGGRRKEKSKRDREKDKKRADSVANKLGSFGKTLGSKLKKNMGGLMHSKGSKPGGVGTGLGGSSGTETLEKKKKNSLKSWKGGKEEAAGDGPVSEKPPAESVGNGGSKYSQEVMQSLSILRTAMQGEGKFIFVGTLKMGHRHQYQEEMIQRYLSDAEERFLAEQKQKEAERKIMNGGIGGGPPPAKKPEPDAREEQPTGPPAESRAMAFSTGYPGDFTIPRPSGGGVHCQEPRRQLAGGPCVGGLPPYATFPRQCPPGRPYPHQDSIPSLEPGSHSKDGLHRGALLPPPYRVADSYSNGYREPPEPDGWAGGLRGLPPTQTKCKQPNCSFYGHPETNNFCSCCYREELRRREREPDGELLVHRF
# Experimental: as §3
# [11] = molecular target: T7, panel of 48 purified DUBs (Homo sapiens, UniProt Q6R6M4); assay: as above; assay type: biochemical; details: DUB USP17; screening concentration 5 μM; 5 µM
# T7 construct: purchased Ubiquigent (DUBprofiler service)
# Experimental: as §3
# [12] = molecular target: T8, panel of 48 purified DUBs (Homo sapiens, UniProt Q8N6M0); assay: as above; assay type: biochemical; details: DUB OTUD6B; screening concentration 5 μM; 5 µM
# T8 construct: purchased Ubiquigent (DUBprofiler service)
# T8 sequence (Q8N6M0 whole entry): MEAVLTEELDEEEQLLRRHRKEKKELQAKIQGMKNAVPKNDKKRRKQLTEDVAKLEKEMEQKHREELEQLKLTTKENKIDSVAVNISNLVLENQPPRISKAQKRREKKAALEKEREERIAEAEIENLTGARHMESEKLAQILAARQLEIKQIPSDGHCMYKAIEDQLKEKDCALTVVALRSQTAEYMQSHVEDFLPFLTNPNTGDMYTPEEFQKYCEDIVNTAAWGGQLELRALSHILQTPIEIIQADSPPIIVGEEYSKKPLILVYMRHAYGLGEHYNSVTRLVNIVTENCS
# Experimental: as §3
# [13] = molecular target: T9, panel of 48 purified DUBs (Homo sapiens, UniProt Q8NB14); assay: as above; assay type: biochemical; details: DUB USP38; screening concentration 5 μM; 5 µM
# T9 construct: purchased Ubiquigent (DUBprofiler service)
# Experimental: as §3
# [14] = molecular target: T10, panel of 48 purified DUBs (Homo sapiens, UniProt Q92560); assay: as above; assay type: biochemical; details: DUB BAP1; screening concentration 5 μM; 5 µM
# T10 construct: purchased Ubiquigent (DUBprofiler service)
# T10 sequence (Q92560 whole entry): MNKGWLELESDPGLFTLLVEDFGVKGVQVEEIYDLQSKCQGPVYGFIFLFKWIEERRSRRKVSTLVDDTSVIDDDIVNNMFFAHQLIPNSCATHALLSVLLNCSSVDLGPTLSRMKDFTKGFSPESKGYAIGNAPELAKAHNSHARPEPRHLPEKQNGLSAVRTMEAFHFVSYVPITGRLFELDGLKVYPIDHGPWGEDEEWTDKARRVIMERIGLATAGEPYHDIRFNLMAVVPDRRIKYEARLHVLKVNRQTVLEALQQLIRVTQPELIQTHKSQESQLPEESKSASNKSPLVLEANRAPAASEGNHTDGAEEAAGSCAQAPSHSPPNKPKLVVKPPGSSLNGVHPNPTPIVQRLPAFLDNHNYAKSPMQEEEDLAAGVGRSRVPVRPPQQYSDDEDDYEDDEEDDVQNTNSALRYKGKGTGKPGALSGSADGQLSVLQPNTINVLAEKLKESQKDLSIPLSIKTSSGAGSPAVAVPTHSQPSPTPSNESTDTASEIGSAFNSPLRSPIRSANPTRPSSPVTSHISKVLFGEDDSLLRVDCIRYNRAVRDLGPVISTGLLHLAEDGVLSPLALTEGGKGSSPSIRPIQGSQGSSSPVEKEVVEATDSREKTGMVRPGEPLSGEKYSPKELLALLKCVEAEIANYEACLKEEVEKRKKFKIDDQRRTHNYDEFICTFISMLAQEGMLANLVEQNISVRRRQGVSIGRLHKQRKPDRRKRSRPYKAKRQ
# Experimental: as §3
# [15] = molecular target: T11, panel of 48 purified DUBs (Homo sapiens, UniProt Q96JH7); assay: as above; assay type: biochemical; details: DUB VCPIP; screening concentration 5 μM
# T11 construct: purchased Ubiquigent (DUBprofiler service)
# Experimental: as §3
# [16] = molecular target: T12, panel of 48 purified DUBs (Homo sapiens, UniProt Q9P275); assay: as above; assay type: biochemical; details: DUB USP36; screening concentration 5 μM; 5 µM
# T12 construct: purchased Ubiquigent (DUBprofiler service)
# Experimental: as §3
# [17] = molecular target: T13, panel of 48 purified DUBs (Homo sapiens, UniProt Q9UK80); assay: as above; assay type: biochemical; details: DUB USP21; screening concentration 5 μM
# T13 construct: purchased Ubiquigent (DUBprofiler service)
# Experimental: as §3
# [18] = molecular target: T14, panel of 48 purified DUBs (Homo sapiens, UniProt Q9Y4E8); assay: as above; assay type: biochemical; details: DUB USP15; screening concentration 5 μM; 5 µM
# T14 construct: purchased Ubiquigent (DUBprofiler service)
# T14 sequence (Q9Y4E8 whole entry): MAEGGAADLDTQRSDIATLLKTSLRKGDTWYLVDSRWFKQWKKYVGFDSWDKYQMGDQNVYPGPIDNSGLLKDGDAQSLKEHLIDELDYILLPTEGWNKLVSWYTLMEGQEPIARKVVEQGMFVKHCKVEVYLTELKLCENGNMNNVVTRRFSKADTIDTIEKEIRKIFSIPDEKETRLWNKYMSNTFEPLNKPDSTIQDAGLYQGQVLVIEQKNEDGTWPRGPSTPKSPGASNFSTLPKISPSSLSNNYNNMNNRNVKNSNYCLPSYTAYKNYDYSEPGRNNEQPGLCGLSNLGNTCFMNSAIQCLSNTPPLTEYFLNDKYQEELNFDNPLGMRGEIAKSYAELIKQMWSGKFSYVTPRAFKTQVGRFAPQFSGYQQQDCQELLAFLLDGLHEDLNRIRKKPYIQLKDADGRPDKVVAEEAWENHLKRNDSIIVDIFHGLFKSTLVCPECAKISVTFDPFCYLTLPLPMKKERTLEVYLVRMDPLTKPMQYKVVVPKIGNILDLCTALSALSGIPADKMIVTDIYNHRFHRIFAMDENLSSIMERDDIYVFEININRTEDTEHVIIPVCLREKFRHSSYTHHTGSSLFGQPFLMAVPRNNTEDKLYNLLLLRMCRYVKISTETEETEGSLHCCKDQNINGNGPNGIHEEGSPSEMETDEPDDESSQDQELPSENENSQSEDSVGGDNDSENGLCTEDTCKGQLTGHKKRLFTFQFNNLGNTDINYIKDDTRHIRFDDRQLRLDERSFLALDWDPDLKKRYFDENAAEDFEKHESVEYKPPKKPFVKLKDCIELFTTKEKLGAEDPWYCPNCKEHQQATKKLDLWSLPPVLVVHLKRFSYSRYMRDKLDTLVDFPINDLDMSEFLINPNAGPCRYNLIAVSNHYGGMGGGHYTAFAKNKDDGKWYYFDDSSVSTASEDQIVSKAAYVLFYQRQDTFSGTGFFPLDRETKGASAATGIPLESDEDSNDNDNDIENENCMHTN
# Experimental: as §3
# [19] = FX-171-C 0.035 μM, read-out: Normalised V0
# [20] = FX-171-C 3.1 μM, read-out: Normalised V0
# [21] = FX-171-C 100 μM, read-out: Normalised V0
compound,measurement,setting,value
O=C(NC1C2CNCC21)c1nn(C(=O)c2c(Cl)cccc2Cl)cc1NC(=O)c1c(Cl)cccc1Cl (stereo not shown) [FX-171-C],IC50,[1],1400 nM
same,inhibitor sensitivity vs BRISC WT,[1],remained inhibitor sensitive
same,remaining activity at 0.035 µM,[1]; [19],98.5%
same,remaining activity at 0.35 µM,"[1]; FX-171-C 0.35 μM, read-out: Normalised V0",78.4%
same,remaining activity at 3.1 µM,[1]; [20],25.5%
same,remaining activity at 6.25 µM,"[1]; FX-171-C 6.25 μM, read-out: Normalised V0",20.8%
same,remaining activity at 12.5 µM,"[1]; FX-171-C 12.5 μM, read-out: Normalised V0",15%
same,remaining activity at 100 µM,[1]; [21],4.9%
same,IC50,[2],33000 nM
same,reduction of inhibition over wild-type complex,[2],> 100 fold
same,remaining activity at 0.035 µM,[2]; [19],94.7%
same,remaining activity at 3.1 µM,[2]; [20],98.4%
same,remaining activity at 50 µM,"[2]; FX-171-C 50 μM, read-out: Normalised V0",40.6%
same,remaining activity at 100 µM,[2]; [21],22.1%
same,remaining activity at 200 µM,"[2]; FX-171-C 200 μM, read-out: Normalised V0",10.5%
same,IC50,[3],2300 nM
same,inhibitor sensitivity vs BRISC WT,[3],moderate to little effect on inhibitor sensitivity
same,Dimer fraction,[4]; [FX-171-C (μM)] 20,0
same,Dimer fraction,[4]; [FX-171-C (μM)] 40,0
same,Dimer fraction,[4]; [FX-171-C (μM)] 80,0
same,Dimer fraction,[4]; [FX-171-C (μM)] 156,0
same,Dimer fraction,[4]; [FX-171-C (μM)] 312.5,0
same,Dimer fraction,[4]; [FX-171-C (μM)] 2500,0.11 and 0.07
same,Dimer fraction,[4]; [FX-171-C (μM)] 5000,0.16 and 0.15 and 0.14
same,Dimer fraction,[4]; [FX-171-C (μM)] 10000,0.23 and 0.22 and 0.14
same,dimer formation of human BRISCΔLoop on inhibitor addition,[4]; mass photometry and negative-stain EM,fewer dimers
O=C(NC1CCNCC1)c1nn(C(=O)c2c(Cl)cccc2Cl)cc1NC(=O)c1c(Cl)cccc1Cl [JMS-175-2],Activity (% control),[5],100 % control and 99 % control
same,Activity (% control),[6],104 % control and 112 % control
same,Activity (% control),[7],87 % control and 85 % control
same,Activity (% control),[8],101 % control
same,Activity (% control),[9],95 % control and 93 % control
same,Activity (% control),[10],88 % control and 90 % control
same,Activity (% control),[11],89 % control and 83 % control
same,Activity (% control),[12],102 % control and 101 % control
same,Activity (% control),[13],94 % control and 92 % control
same,Activity (% control),[14],92 % control and 96 % control
same,Activity (% control),[15],93 % control
same,Activity (% control),[16],108 % control and 117 % control
same,Activity (% control),[17],93 % control
same,Activity (% control),[18],111 % control and 115 % control

# From PMC7617869, “Molecular glues that inhibit deubiquitylase activity and inflammatory signaling” (Nature Structural & Molecular Biology, 2025)
